Earlier results on six compounds are cited in patent publication EP0984012A2, “Nitric oxide releasing oxindole prodrugs with analgesic and anti-inflammatory properties” (Pfizer Products Inc., priority 1998, dated 2000).

Data set [1] concerns experimental gastric ulcers. Particulars: rat, daily treatment.
For data set [2] the following is noted: administered on both an acute and a chronic basis; versus parent NSAID.
Data set [3] has as its system small intestine.
The conditions of data set [4]: animal models of acute and chronic inflammation; versus parent NSAID.

For the compound `O=C(O)Cc1ccccc1Nc1c(Cl)cccc1Cl` [diclofenac], the “healing of experimental gastric ulcers” value in data set [1] was “no effect”.

In the case of `CC(C(=O)OCCCCO[N+](=O)[O-])c1ccc(-c2ccccc2)c(F)c1` (stereo not drawn) [flurbiprofen nitroxybutylester], the gastric injury result in data set [2] is reported as “markedly less gastric injury than that produced by their parent NSAIDs”. Besides, the mitochondrial damage result in data set [3] (in vivo) was “associated with mitochondrial damage in vivo”. In addition, in data set [3] (rats, versus flurbiprofen), the “macroscopic damage in the small intestine” value is reported as “significantly less macroscopic damage in the small intestine than flurbiprofen”. Further, the anti-inflammatory activity entry in data set [4] was “comparable to that of their parent NSAIDs”.

As to `O=[N+]([O-])OCC(CO[N+](=O)[O-])O[N+](=O)[O-]` [glyceryl trinitrate], the “healing of experimental gastric ulcers” value in data set [1] is given as “accelerated”.

For the compound `CC(C(=O)OCCCCO[N+](=O)[O-])c1cccc(C(=O)c2ccccc2)c1` (stereo not drawn) [ketoprofen nitroxybutylester], the gastric injury result in data set [2] is recorded as “markedly less gastric injury than that produced by their parent NSAIDs”. The anti-inflammatory activity entry in data set [4] is listed as “comparable to that of their parent NSAIDs”.

For `COc1ccc2cc(CCC(C)=O)ccc2c1` [nabumetone], the “healing of experimental gastric ulcers” value in data set [1] is “no effect”.

On to `O=C(Cc1ccccc1Nc1c(Cl)cccc1Cl)OCCCCO[N+](=O)[O-]` [nitrofenac, diclofenac-4-nitroxybutylester], for which the gastric injury result in data set [2] was “markedly less gastric injury than that produced by their parent NSAIDs”. The anti-inflammatory activity entry in data set [4] was “comparable to that of their parent NSAIDs”. Also, in data set [1], the “healing of experimental gastric ulcers” value is “accelerated”.
